According to patent publication US12121596B2, “Near infrared fluorescent dyes, formulations and related methods” (Washington University, priority 2019, dated 2024):
Positions of bridges follow the written chain, without caps; N, C: chain ends. Non-standard residues stand in square brackets, D forms with d. Residues, ends and D or L forms follow the SMILES beside them. *: point of attachment. X1 = CC1(C)C(/C=C/C=C/C=C/C=C2/N(CCC(=O)*)c3ccc4ccccc4c3C2(C)C)=[N+](CCC(=O)[O-])c2ccc3ccccc3c21

What was measured:
[1] = tested on: fibroblast co-cultured with ANXA2-positive GFP-expressing 4T1 cells; test: Fibroblast and 4T1 co-culture uptake; assay type: cell-based
Method: For co-culture experiments on intercellular pANXA2/ANXA2 transfer, fibroblasts (FB) (5×10^4 cells/well) were seeded on a 35-mm glass-bottom Petri dish (MarTek Cor. Ashland, MA, USA) overnight before seeding of 5×10^4 of cancer cells and further culture overnight before the experiment. LS301 (1 μM) was incubated with co-cultures of FB and ANXA2-YFP transfected HL60 cells, co-cultures of FB and wild-type HL60 cells, or co-cultures of FB and 4T1-GFP cells at 37° C. for 3 hours and then washed twice with 0.01 M PBS (pH 7.4). Then, the cells were fixed with 4% paraformaldehyde for 10 minutes.

[2] = tested on: lysates of insulin-stimulated, pANXA2-expressing 4T1 cells; test: Binding to lysates of insulin-stimulated 4T1 cells; set-up: species or system murine; settings: read-out: apparent Kd, 4T1 cell lysates
Method: MST was performed using the Monolith NT.115 (Nanotemper Technologies, Munich, Germany). The appropriate agent(s) and LS301 stock samples were denatured in MST-1 buffer (50 mM Tris-HCl, pH 7.4; 150 mM NaCl; 10 mM MgCl2; 2% DMSO; 0.1% Tween-20; 4% SDS, 4 mM dithiothreitol (DTT)) at 97° C. for 10 min. Fluorescence was assessed in MST-2 buffer (50 mM Tris-HCl, pH 7.4; 150 mM NaCl; 10 mM MgCl2). The protein was prepared in MST-2 buffer, and 20 μL serial dilutions were made with protein concentration ranging from 3.05 pM to 50 nM (pANXA2) or 3.81 pM to 62.5 nM (ANXA2). All samples were loaded into NT.115 standard capillaries. The analysis was performed at 37° C., 30% LED power, 60% MST power, and a constant LS301 concentration of 20 nM. The apparent Kd values were calculated from fragment concentration-dependent changes in normalized fluorescence (Fraction Bound) of LS301 after 5 seconds of thermophoresis based on mass action law using the MO Affinity Analysis v2.3 software.
For Western blot analysis of insulin/PP2-induced change in cellular pANXA2 levels, 4T1 cells were treated with insulin or PP2 as above, lysed, and subjected to SDS-PAGE analysis. […]

[3] = tested on: breast cancer patient-derived xenograft; test: In vivo NIR imaging of tumor retention; set-up: species or system mice
Method: To establish the various tumor models, nude, Balb/c, or C57BL6 mice were injected with 10^5-10^7 tumor cells subcutaneously on unilateral or bilateral flanks. In some cases, spontaneous tumor models were used. Animals injected subcutaneously with saline served as sham tumor controls. For near-infrared imaging, 100 μL volumes of 60 μM LS301 or cypate in PBS were injected intravenously by lateral tail vein, and animals were imaged using a Pearl Small Animal Imager (LI-COR Biotechnology, Lincoln, NE, USA) at the indicated time points. In some experiments, probes were formulated in 1% albumin in PBS. Animals were shaved using commercially available hair removal equipment and products before imaging. For experiments involving further tissue analysis, animals were anesthetized with isoflurane and euthanized by cervical dislocation under anesthesia. Organs were harvested by surgical dissection. For quantitative organ biodistribution studies, individual regions of interest were drawn around each organ of interest, and fluorescence was quantified using the Pearl Small Animal Imager software.

ANXA3 = target: T1, ANXA3 (Homo sapiens, UniProt P12429); test: Microscale thermophoresis (MST), ANXA3 binding; settings: read-out: apparent Kd, ANXA3
T1 construct: purchased MyBioSource, Inc
T1 sequence (P12429 1-323): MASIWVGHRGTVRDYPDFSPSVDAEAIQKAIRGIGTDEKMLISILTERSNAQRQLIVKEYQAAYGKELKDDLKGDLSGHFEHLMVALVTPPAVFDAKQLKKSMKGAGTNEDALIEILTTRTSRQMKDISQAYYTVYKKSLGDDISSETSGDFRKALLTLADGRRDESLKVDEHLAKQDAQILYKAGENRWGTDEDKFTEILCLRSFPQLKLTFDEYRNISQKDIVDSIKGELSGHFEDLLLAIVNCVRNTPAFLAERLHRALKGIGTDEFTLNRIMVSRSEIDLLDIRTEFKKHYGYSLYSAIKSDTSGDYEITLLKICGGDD
Description: Recombinant proteins and antibodies. Recombinant annexin A2, annexin A2 with glutathione-S-transferase (GST) tag, annexin A1, and annexin A3 proteins were purchased from MyBioSource, Inc. (San Diego, CA, USA). Purified ANXA2 protein and purified pANXA2 protein were gifts from Dr. Gabriel Bimme (Beth Israel Deaconess Medical Center, Boston, MA). Rabbit monoclonal anti-annexin A2 antibody (D11G2, #8235), Rabbit monoclonal anti-Rab5 (C8B1, #3547), and rabbit monoclonal anti-Rab7 (D95F2, #936 7) primary antibodies were purchased from Cell Signaling Technology, Inc. (Danvers, MA, USA). Mouse monoclonal anti-β-actin 2A3 (sc-517582), mouse monoclonal anti-pANXA2 antibody (11.Tyr 24) (sc-135752), rabbit polyclonal anti-NOS2 (C-19, sc-649), rabbit polyclonal anti-ARG1 (H-52, sc-20150) antibodies, and protein A/G agarose were purchased from Santa Cruz Biotechnology, Inc. (Dallas, TX, USA). […]
MST was performed using the Monolith NT.115 (Nanotemper Technologies, Munich, Germany). […] Fluorescence was assessed in MST-2 buffer (50 mM Tris-HCl, pH 7.4; 150 mM NaCl; 10 mM MgCl2). […] The apparent Kd values were calculated from fragment concentration-dependent changes in normalized fluorescence (Fraction Bound) of LS301 after 5 seconds of thermophoresis based on mass action law using the MO Affinity Analysis v2.3 software.

For CC1(C)C(/C=C/C=C/C=C/C=C2/N(CCC(=O)N[C@@H]3CSSC[C@@H](C(=O)N[C@@H](CCCCN)C(=O)O)NC(=O)[C@@H]4CCCN4C(=O)[C@H](CO)NC(=O)[C@H](CC(=O)O)NC(=O)[C@H](CCCNC(=N)N)NC(=O)CNC3=O)c3ccc4ccccc4c3C2(C)C)=[N+](CCC(=O)[O-])c2ccc3ccccc3c21 [LS301, cypate-cyclic (DCys-Gly-Arg-Asp-Ser-Pro-Cys)-Lys-OH] (X1-[dC]GRDSPCK-OH; disulfide 1-7), the uptake in co-culture [1] was “LS301 uptake by tumor cells and fibroblasts”, the Kd [2] was 0.017 ± 0.004 nM and the “time remaining in the tumor lesion” value ([3]; breast cancer patient-derived xenograft) was “over 96 hours”. The tumor coverage ([3]; small tumors (<5 mm)) was “about 100%” and the Kd (ANXA3) was 6.13 ± 0.28 nM.
